One data set concerns the target FAP (Homo sapiens (Human), UniProt Q12884). The experiment in a line: FAP inhibition assay (recombinant enzyme, Z-Gly-Pro-AMC substrate). Type of data set: biochemical. The settings on record: for Ki: read-out: FAP Ki. How it is done:
(§1) PSMA binding affinities of the compounds were determined using a competitive inhibition assay as previously reported. […] FAP, prolyl endopeptidase (PREP), and […] (DPPIV) inhibition assays: Recombinant enzymes (FAP, PREP, DPPIV) were purchased from R&D Systems (Minneapolis, MN). […] Z-Gly-Pro-AMC was used as a substrate for FAP and PREP. H-Gly-Pro-AMC was used as a substrate for DPPIV. The recombinant enzyme (0.4 μg/mL) was incubated with varying amounts of the test articles in the presence of the designated substrate (80 μM) for 10 min at room temperature. Fluorescence intensity was measured with 380 nm excitation and 460 nm emission using the Cytation 5 Cell Imaging Multi-Mode Reader (BioTek, Winooski, VT). IC50 and Ki values were obtained using a sigmoidal dose-response function.

The target of a further data set is DPPIV (Homo sapiens (Human), UniProt P27487). Description: DPPIV inhibition assay (recombinant enzyme, H-Gly-Pro-AMC substrate). Type of data set: biochemical. Here is the method:
as §1

Another data set deals with PREP (Homo sapiens (Human), UniProt P48147). Description: PREP inhibition assay (recombinant enzyme, Z-Gly-Pro-AMC substrate). Type of data set: biochemical. Here is the method:
as §1

A further data set concerns the target PSMA (Homo sapiens (Human), UniProt Q04609). Description: PSMA competitive inhibition assay (NAAG substrate, LNCaP cell lysate). It counts as biochemical. The settings on record: for Ki: read-out: PSMA Ki. Here is the method: as §1
The test system of a further data set is MDA-MB-231. Description: Biodistribution in MB-MDA-231 NSG mice. It counts as in vivo, mouse. Also on record: Biodistribution: Spleen / Biodistribution: Fat / Biodistribution: Kidney / Biodistribution: Muscle / Biodistribution: Small Intestine / Biodistribution: Salivary Gland / Biodistribution: Lacrimal gland / Biodistribution: Bladder / Biodistribution: Bone / Biodistribution: MDA-MB-231 / Biodistribution: Blood / Biodistribution: Heart / Biodistribution: Lung / Biodistribution: Liver / Biodistribution: Stomach: unit not given here.

Like-named read-outs stand apart in the source and are kept apart here. A value given as a limit tells only on which side of the number the result lay.

PREP, sequence (P48147 whole entry): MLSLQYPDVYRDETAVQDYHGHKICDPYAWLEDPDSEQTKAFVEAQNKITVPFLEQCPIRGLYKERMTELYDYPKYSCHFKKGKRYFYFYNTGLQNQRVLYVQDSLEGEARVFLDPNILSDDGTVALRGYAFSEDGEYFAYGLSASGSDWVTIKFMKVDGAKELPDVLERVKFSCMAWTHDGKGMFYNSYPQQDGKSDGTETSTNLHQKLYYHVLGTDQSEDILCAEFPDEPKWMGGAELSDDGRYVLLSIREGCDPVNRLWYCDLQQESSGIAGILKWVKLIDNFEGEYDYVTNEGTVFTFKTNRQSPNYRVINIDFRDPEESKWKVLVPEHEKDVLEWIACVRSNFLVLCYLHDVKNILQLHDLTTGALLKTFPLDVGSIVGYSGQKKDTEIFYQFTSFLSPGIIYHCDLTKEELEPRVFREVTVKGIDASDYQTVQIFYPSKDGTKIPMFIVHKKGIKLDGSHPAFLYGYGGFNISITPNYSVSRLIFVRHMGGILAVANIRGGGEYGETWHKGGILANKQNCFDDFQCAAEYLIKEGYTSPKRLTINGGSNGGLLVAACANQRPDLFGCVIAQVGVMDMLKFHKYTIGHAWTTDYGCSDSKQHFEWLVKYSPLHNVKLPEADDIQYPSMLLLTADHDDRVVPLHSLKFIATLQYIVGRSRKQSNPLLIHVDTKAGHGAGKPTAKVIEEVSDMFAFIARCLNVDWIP
PSMA, sequence (Q04609 whole entry): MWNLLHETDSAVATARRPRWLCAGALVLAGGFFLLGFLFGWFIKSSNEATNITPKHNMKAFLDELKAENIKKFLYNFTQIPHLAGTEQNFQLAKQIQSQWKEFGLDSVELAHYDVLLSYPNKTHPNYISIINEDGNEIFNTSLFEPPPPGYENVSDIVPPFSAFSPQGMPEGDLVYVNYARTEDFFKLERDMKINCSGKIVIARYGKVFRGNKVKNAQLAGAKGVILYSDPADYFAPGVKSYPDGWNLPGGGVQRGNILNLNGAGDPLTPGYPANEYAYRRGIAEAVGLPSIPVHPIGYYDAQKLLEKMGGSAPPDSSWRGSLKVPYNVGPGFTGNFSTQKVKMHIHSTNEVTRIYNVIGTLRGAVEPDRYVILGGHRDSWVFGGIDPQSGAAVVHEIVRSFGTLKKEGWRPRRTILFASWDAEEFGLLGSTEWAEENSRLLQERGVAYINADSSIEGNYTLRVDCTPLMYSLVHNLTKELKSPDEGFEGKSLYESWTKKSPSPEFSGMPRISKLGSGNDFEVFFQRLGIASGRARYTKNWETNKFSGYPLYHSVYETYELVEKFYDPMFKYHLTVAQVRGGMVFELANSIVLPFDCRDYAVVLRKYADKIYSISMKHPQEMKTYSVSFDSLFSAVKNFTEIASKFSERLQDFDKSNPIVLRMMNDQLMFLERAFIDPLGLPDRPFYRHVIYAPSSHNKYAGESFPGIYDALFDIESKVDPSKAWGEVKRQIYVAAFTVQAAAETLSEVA
FAP, sequence (Q12884 whole entry): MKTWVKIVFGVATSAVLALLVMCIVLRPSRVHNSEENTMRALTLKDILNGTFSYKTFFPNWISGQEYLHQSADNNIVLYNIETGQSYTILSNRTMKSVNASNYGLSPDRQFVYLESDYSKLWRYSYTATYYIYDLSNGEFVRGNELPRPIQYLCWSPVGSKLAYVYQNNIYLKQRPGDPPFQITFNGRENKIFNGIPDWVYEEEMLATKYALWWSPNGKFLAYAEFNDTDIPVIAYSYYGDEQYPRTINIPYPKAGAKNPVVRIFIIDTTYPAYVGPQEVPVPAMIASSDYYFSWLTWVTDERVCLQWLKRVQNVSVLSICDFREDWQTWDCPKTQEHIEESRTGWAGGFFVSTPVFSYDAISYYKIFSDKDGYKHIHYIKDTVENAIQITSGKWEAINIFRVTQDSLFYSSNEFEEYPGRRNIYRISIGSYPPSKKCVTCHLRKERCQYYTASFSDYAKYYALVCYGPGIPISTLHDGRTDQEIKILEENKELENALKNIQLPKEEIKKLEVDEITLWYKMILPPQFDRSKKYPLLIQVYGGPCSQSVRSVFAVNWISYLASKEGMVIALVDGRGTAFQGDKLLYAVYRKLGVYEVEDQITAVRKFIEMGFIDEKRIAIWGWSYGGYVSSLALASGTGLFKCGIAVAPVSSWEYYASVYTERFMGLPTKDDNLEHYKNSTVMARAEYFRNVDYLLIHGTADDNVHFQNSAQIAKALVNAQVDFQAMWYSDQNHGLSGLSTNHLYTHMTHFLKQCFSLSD
DPPIV, sequence (P27487 whole entry): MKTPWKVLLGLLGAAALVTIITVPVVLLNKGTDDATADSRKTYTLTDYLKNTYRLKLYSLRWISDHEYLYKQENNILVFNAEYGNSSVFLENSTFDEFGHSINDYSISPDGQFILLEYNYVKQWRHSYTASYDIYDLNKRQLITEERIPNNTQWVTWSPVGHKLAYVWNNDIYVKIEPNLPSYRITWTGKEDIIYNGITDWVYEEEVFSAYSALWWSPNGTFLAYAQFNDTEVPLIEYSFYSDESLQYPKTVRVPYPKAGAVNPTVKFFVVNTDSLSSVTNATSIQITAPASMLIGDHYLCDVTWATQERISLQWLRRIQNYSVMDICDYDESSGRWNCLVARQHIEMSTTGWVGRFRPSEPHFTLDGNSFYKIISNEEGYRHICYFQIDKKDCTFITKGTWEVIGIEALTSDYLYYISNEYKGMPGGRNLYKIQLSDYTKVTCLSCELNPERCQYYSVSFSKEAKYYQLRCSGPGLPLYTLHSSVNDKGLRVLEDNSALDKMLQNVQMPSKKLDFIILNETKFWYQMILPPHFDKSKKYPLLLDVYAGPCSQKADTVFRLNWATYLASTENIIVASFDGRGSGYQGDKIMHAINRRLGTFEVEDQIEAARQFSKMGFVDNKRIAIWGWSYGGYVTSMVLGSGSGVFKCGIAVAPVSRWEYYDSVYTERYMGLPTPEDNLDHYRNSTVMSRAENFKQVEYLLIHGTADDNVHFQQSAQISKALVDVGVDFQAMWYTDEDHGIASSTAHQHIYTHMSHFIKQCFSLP

The IC50 is the concentration that inhibits the measured activity by half. What is called Ki is a measure of affinity in units of concentration, obtained from inhibition or displacement. In the case of `N#C[C@@H]1CCCN1C(=O)CNC(=O)c1ccnc2ccc(OCCCN(Cc3ccc(F)nc3)C(=O)CN3CCN(CC(=O)O)CCN(CC(=O)O)CCN(CC(=O)O)CC3)cc12` [JHU1221709], the IC50 at FAP (Table 3) stood at 2.09 nM; at DPPIV (Table 3, read-out: DPPIV IC50), 12.6 µM; on PREP (Table 3), 22000 nM. Also, at FAP (Table 3), the Ki turned out to be 0.42 nM.

On to `N#C[C@@H]1CCCN1C(=O)CNC(=O)c1ccnc2ccc(OCCOCCNC(=O)[C@H](CCCCNC(=O)c3ccc(F)nc3)NC(=O)CN3CCN(CC(=O)O)CCN(CC(=O)O)CCN(CC(=O)O)CC3)cc12` [JHU1221803], for which the IC50 at FAP (Table 3) stood at 1.4 nM; on DPPIV (Table 3, read-out: DPPIV IC50), 6.22 µM; on PREP (Table 3), 1090 nM. The Ki at FAP (Table 3) was 0.28 nM.

With `N#C[C@@H]1CCCN1C(=O)CNC(=O)c1ccnc2ccc(OCCCNC(=O)CCc3cn(CCOCCOCCOCCC(=O)N[C@@H](CCCCNC(=O)CCC(C(=O)O)N4CCN(CC(=O)O)CCN(CC(=O)O)CCN(CC(=O)O)CC4)C(=O)NCCCCC(=O)N(CCCC[C@H](NC(=O)N[C@@H](CCC(=O)O)C(=O)O)C(=O)O)Cc4ccc(Br)cc4)nn3)cc12` (some centres unmarked) [SB-FAP-03], the IC50 is 3.42 nM on FAP (Table 4); 14.5 nM at PSMA (Table 4); 18.4 µM on DPPIV (Table 4, read-out: DPPIV IC50); 1370 nM at PREP (Table 4). Also, the results for the Ki at FAP (Table 4) and on PSMA (Table 4) were 0.68 nM and 2.89 nM, respectively.

On to `N#C[C@@H]1CCCN1C(=O)CNC(=O)c1ccnc2ccc(OCCCNC(=O)CCc3cn(CCCC[C@H](NC(=O)CN4CCN(CC(=O)O)CCN(CC(=O)O)CC4)C(=O)NCCCCCC(=O)N(CCCC[C@H](NC(=O)N[C@@H](CCC(=O)O)C(=O)O)C(=O)O)Cc4ccc(Br)cc4)nn3)cc12` [SB-FAP-07], for which the IC50 at FAP (Table 4) came to 0.65 nM; on PSMA (Table 4) it was 39.6 nM; at DPPIV (Table 4, read-out: DPPIV IC50), 11.7 µM; on PREP (Table 4), 1070 nM. For the same molecule, the Ki on FAP came to 0.13 nM; at PSMA, 7.92 nM; at DPPIV it was 3040 nM; on PREP, 0.21 µM.

Turning to `N#C[C@@H]1CCCN1C(=O)CNC(=O)c1c(F)cnc2ccccc12` [JHU1220503], the IC50 at FAP (Table 3) was 223 nM; at DPPIV (Table 3, read-out: DPPIV IC50), greater than 20 µM; at PREP (Table 3), 688 nM. Besides, the Ki on FAP (Table 3) came to 44.6 nM.

As for `N#C[C@@H]1CCCN1C(=O)CNC(=O)c1ccnc2ccc(OCCF)cc12` [JHU1220470], the figures for the IC50 on FAP (Table 3), on DPPIV and on PREP (Table 3) were 0.343 nM, greater than 20 µM and 1410 nM, respectively. In addition, the Ki on FAP (Table 3) is 0.0686 nM.

As for `N#C[C@@H]1CCCN1C(=O)CNC(=O)c1ccnc2ccc(OCCCNC(=O)CCc3cn(CCCC[C@H](NC(=O)CN4CCN(CC(=O)O)CCN(CC(=O)O)CCN(CC(=O)O)CC4)C(=O)NCCCCCC(=O)N(CCCC[C@H](NC(=O)N[C@@H](CCC(=O)O)C(=O)O)C(=O)O)Cc4ccc(Br)cc4)nn3)cc12` [SB-FAP-06], the IC50 on FAP (Table 4) was 1.84 nM; at PSMA (Table 4), 4.71 nM; at DPPIV (Table 4, read-out: DPPIV IC50), 14.1 µM; on PREP (Table 4), 370 nM. Moreover, the Ki worked out at 0.37 nM at FAP (Table 4) and 0.94 nM on PSMA (Table 4).

Take `N#C[C@@H]1CCCN1C(=O)CNC(=O)c1ccnc2ccc(OCCCNC(=O)CNC(=O)[C@H](CCCCNC(=O)c3ccc(F)nc3)NC(=O)CN3CCN(CC(=O)O)CCN(CC(=O)O)CCN(CC(=O)O)CC3)cc12` [JHU1221804]: the IC50 on FAP (Table 3) is 1.01 nM; at DPPIV (Table 3, read-out: DPPIV IC50), 8.31 µM; at PREP (Table 3) it was 1710 nM. Further, the Ki on FAP (Table 3) turned out to be 0.2 nM.

As for `N#C[C@@H]1CCCN1C(=O)CNC(=O)c1ccnc2ccc(OCCCNC(=O)CCc3cn(CCOCCOCCOCCC(=O)N[C@@H](CCCCNC(=O)CN4CCN(CC(=O)O)CCN(CC(=O)O)CC4)C(=O)NCCCCC(=O)N(CCCC[C@H](NC(=O)N[C@@H](CCC(=O)O)C(=O)O)C(=O)O)Cc4ccc(Br)cc4)nn3)cc12` [SB-FAP-02], in the data set with MDA-MB-231 (At 1 h nude mice), the “Biodistribution: Blood” value came to 8.47 ± 0.16, the “Biodistribution: Bone” value worked out at 3.34 ± 0.32, the “Biodistribution: Fat” value amounted to 0.61 ± 0.31 and the “Biodistribution: Heart” value stood at 3.46 ± 0.07. For the same molecule, in the data set on MDA-MB-231 (At 1 h nude mice), the “Biodistribution: Kidney” value was found to be 12.14 ± 1.39, the “Biodistribution: Lacrimal gland” value came out at 6.61 ± 1.23, the “Biodistribution: Liver” value came to 6.74 ± 0.16 and the “Biodistribution: Lung” value came out at 5.16 ± 0.04. In the data set with MDA-MB-231 (At 1 h nude mice), the “Biodistribution: MDA-MB-231” value turned out to be 3.60 ± 0.32, the “Biodistribution: Muscle” value is listed as 1.59 ± 0.07, the “Biodistribution: Pancreas” value is given as 4.95 ± 0.24 and the “Biodistribution: Salivary Gland” value came to 7.75 ± 0.99. Moreover, in the data set with MDA-MB-231 (At 1 h nude mice), the “Biodistribution: Small Intestine” value is 6.69 ± 0.82, the “Biodistribution: Spleen” value came to 2.38 ± 0.04 and the “Biodistribution: Stomach” value is recorded as 2.72 ± 0.30. In addition, the “Biodistribution: Bladder” value in the data set with MDA-MB-231 (At 2 h NSG mice) stood at 1.82 ± 0.26. Besides, on FAP (Table 4), the IC50 was 1.53 nM and the Ki is 0.31 nM. For the same molecule, the Ki on FAP is 0.31 nM. At PSMA (Table 4), the IC50 is 90 nM and the Ki worked out at 18.1 nM. Further, the Ki on PSMA turned out to be 18.1 nM. Further, the “PSMA binding affinity, fold lower than FP-L2” value on PSMA (relative to FP-L2) turned out to be 2 fold. For the same molecule, on DPPIV, the Ki came out at 1760 nM. The IC50 at DPPIV (Table 4, read-out: DPPIV IC50) is 8.81 µM. For the same molecule, at PREP, the Ki came to 116 µM. Further, the IC50 at PREP (Table 4) came out at 580 nM.

As to `N#C[C@@H]1CCCN1C(=O)CNC(=O)c1ccnc2ccc(OCCCNC(=O)[C@@H](CC(=O)O)NC(=O)[C@@H](CC(=O)O)NC(=O)c3cccc(F)n3)cc12` [JHU1221708], the IC50 at FAP (Table 3) stood at 1.19 nM; on DPPIV (Table 3, read-out: DPPIV IC50) it was 7.91 µM; on PREP (Table 3), 6910 nM. In addition, the Ki at FAP (Table 3) turned out to be 0.24 nM.

Source of the values: patent publication US20240382629A1, “HETEROBIVALENT AND HOMOBIVALENT AGENTS TARGETING FIBROBLAST ACTIVATION PROTEIN ALPHA AND/OR PROSTATE-SPECIFIC MEMBRANE ANTIGEN” (The Johns Hopkins University, priority 2021, published 2024).
